Measured values: patent US20100240746A1, “STEREOISOMERS OF TRICYCLODECAN-9-YL-XANTHOGENATE” (LUMAVITA AG, priority 2007, published 2010)
≈ marks a conversion by molar mass, not a printed value.

Tests used:
[1] = tested on: bovine papilloma virus type I (BPV-1)-transformed HEF (HEF-BPV); assay: Inhibition of bovine papilloma virus, BPV-infected hamster embryo fibroblasts (HEF) cell proliferation assay; assay type: cell-based; settings: HEF-BPV, 72 hr, 37° C., pH 6.8
Description: Briefly, hamster embryo fibroblasts and bovine papilloma virus type I (BPV-1)-transformed HEF (HEF-BPV) were grown in Eagle's basal medium. […] and HEF cells were seeded in 96-well plates at a density of 0.5×10^6 cells per plate in DMEM cell culture medium containing 10% fetal calf serum at pH 6.8. The plates were then incubated in the presence of 5% CO2 in 100% humidity at 37° C. After 6 hr, the cell culture medium in the plates was exchanged with fresh DMEM cell culture medium containing test compounds at a series of concentrations. The plates were incubated at 37° C. for additional 72 hr. Cells in the plates were then washed with PBS, fixed with 3% formaldehyde solution containing 0.9% NaCl for 1 min, washed by water for 10 sec, and dried overnight. For detection, the plates were stained with crystal violet solution for 5 min at room temperature, washed 5 times with water, and dried at room temperature overnight. After adding ethanol/acetic acid (99:1, v/v, […]) to each well, the plates were measured at 595 nm using an ELISA reader.

[2] = molecular target: T1, B. cereus PC-PLC (phosphatidylcholine-specific phospholipase C) (Bacillus cereus, UniProt P09598); assay: Inhibition of phosphatidylcholine-specific phospholipase C (Amplex Red PC-PLC assay kit); assay type: biochemical; settings: 30 min at 37° C., 0.2 U/mL PC-PLC solution, triplicate
T1 construct: purchased Invitrogen
T1 sequence (P09598 39-283 limits assumed): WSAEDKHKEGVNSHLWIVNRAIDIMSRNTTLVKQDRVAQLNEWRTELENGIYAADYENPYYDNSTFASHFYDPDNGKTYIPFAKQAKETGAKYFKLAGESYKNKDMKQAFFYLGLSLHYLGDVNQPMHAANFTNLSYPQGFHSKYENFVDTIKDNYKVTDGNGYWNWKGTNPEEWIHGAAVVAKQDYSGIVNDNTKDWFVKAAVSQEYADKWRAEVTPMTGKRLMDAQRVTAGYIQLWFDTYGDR
Description: The inhibitory activities of optically active potassium salts of (+)- and (−)-O-exo/C-exo-tricyclo [5.2.1.0^2,6]-dec-9-yl-xanthic acid 1A ((+)- and (−)-enantiomers 1A) against phosphatidylcholine-specific phospholipase C were evaluated, together with D609 and potassium salt of racemic O-exo/C-exo xanthic acid 1A (racemic 1A), using Amplex Red phosphatidylcholine-specific phospholipase C(PC-PLC) assay kit, which was obtained from Invitrogen (Calsbad, Calif.). D609 was obtained from Sigma Aldrich.
An Amplex Red stock solution (˜20 mM), a working reaction buffer, and a horseradish peroxidase stock solution (200 U/mL), a H2O2 working solution (20 mM), a choline oxidate stock solution (20 U/mL), an alkaline phosphatase stock solution (400 U/mL), and a B. cereus PC-PLC stock solution (10 U/mL) were prepared according to the instruction of the assay kit. The stock solution (100 mg/mL) for each test compound was also prepared by dissolving the compound in water 2 hr prior to the start of the experiment.
A working Amplex Red/HRP/lecithin solution was prepared by adding 200 μL of Amplex Red reagent stock solution, 100 μL of HRP stock solution, 200 μL of alkaline phosphatase stock solution, 100 μL of choline oxidase stock solution, and 78 μL of the lecithin solution to […] of the working reaction buffer. PC-PLC solution (0.2 U/mL) was prepared by diluting the PC-PLC stock solution with the working reaction buffer to the desired concentration.
The test compound (25 μL) at a serious of concentrations was pipetted into a 96 well plate. For uninhibited PC-PLC controls and non-PC-PLC controls, 25 μL of water was added. After the addition of 50 μL of the Amplex Red/HRP/lecithin working solution, the reaction was initiated by adding 25 μL of PC-PLC solution to each well. […] After incubated for 30 min at 37° C., the reactions were measured with a fluorescence microplate reader using excitation at 550 nm and emission detection at 590 nm. The fluorescent data obtained were corrected for background fluorescence by subtracting the values obtained from the non-PC-PLC controls.

[3] = tested on: HPV-31-infected CIN612 9E keratinocytes; assay: Short-term study, effect on cell proliferation of HPV-31-infected keratinocytes; assay type: cell-based, human papilloma virus; settings: Human papillomavirus, Keratinocyte; 72 hrs, 37° C.; 50% of uninhibited growth
Description: The inhibitory activities of optically active (−)-enantiomer 1A against human papilloma virus were evaluated using HPV-31-infected CIN612 9E keratinocytes (Meyers et al., Science 1992, 257, 971-973).
Effect on cell proliferation. HPV-31 infected cells were seeded in 96-well plates containing 1×10^6 mitomycin C treated 3T3 cells (1×10^4 cells/well), at a density of 0.5×10^6 cells per plate (0.5×10^4 cells/well) in E medium. After the plates were incubated in a CO2 incubator under 5% CO2 at 37° C. in 100% humidity for six hrs, the cell culture medium was removed and fresh E medium containing 0.85 g/L NaHCO3 and a test compound at a series of concentrations (0, 0.5, 1, 2, 4, 8, 16, 32, 64, and 128 μg/mL), or positive control (interferon γ at 200 IU/mL) was added. […] After the plates were dried on blotting paper upside down overnight, 0.1 mL of ethanol/acetic acid (99:1) was added to each well and optical density at 595 nm was determined in an ELISA reader.
Dose response curves were established by plotting growth against concentrations of the test compound or control. ICso values were determined from the dose response curves from crossing points of the dose response curves with a line parallel to the x-axis corresponding to 50% of uninhibited growth.

S=C(S)OC1CC2CC1C1CCCC21 (single isomer, unassigned; (-)) [(−)-Enantiomer 1A, (−)-O-exo/C-exo-tricyclo[5.2.1.0^2,6]-dec-9-yl-xanthic acid]
IC50 [1]: 11.07 ± 0.18 µg/mL (≈ 48.5 µM) | IC50 [2]: 15.9 µM | EC50 [3]: 16 µg/mL (≈ 70.1 µM)
